Experimental data as given in US20130274228A1, “CONCOMITANT DRUG FOR IMPROVING COGNITIVE FUNCTION” (Nishizaki Bioinformation Research Institute, priority 2010, published 2013).

Tested on: normal rats
Assay: Water maze test (acquisition latency)
Type: in vivo, rat
Conditions: oral, every day from 7 days before and during the test, male Wister rats
Protocol: Male Wister rats (7-weeks-old) were used for a water maze test. A circular plastic water tank (diameter 180 cm, depth 45 cm) was used. The inside of the water tank was completely painted in black, and dark water with India ink was filled up to 25 cm from the bottom (22° C.). A platform (diameter 11 cm) painted in black was placed in water such that it was 1 cm below the water surface. The water tank was placed in a test room, and several marks seen by the rat from the water tank were put thereon. During the test, the position of the marks was not changed. A platform was placed a predetermined position from the equal distance from the center and the end of the water tank, namely, center of one quadrant. At one of the randomly selected 5 points, the rat was released facing the wall of the water tank, and the time necessary for evacuating on the platform (acquisition latency) was measured. When smoothly evacuated, the rat was left on the platform for 10 seconds. From 7 days before the water maze test and during the test, DLPC (5 mg/kg) alone, DLPC (10 mg/kg) alone, POPC (5 mg/kg) alone, POPC (10 mg/kg) alone, DLPC (5 mg/kg) and POPC (5 mg/kg), or PEG alone, each dissolved in polyethylene glycol (PEG), was orally administered every day. The water maze test m was performed twice a day, and the second test was started at 2 min after the first test. The test was continuously performed for 8 days, and the mean (±SEM) of acquisition latency of continuous 2 days until the rat reached the platform was calculated.
PEG, DLPC (5 mg/kg), DLPC (10 mg/kg), POPC (5 mg/kg), POPC (10 mg/kg) or DLPC (5 mg/kg) and POPC (5 mg/kg) was orally administered to rats every day during the water maze test from 7 days before the test.

| Compound | acquisition latency of the rat (single administration 5 mg/kg) | acquisition latency of the rat (single administration 10 mg/kg) |
| --- | --- | --- |
| CCCCC/C=C\C/C=C\CCCCCCCC(=O)OC[C@H](COP(=O)([O-])OCC[N+](C)(C)C)OC(=O)CCCCCCC/C=C\C/C=C\CCCCC [DLPC, 1,2-dilinoleoyl-sn-glycero-3-phosphocholine] | did not show a remarkable effect | did not show a remarkable effect |
| CCCCCCCC/C=C\CCCCCCCC(=O)O[C@H](COC(=O)CCCCCCCCCCCCCCC)COP(=O)([O-])OCC[N+](C)(C)C [POPC, 1-palmitoyl-2-oleoyl-sn-glycero-3-phosphocholine] | did not show a remarkable effect | did not show a remarkable effect |
